Values of other authors as cited in patent US20230128032A1, “Early Drug Interventions to Reduce COVID-19 Related Respiratory Distress, Need for Respirator Assist and Death” (Curtails LLC, priority 2020, published 2023).
Bridges are numbered along the chain shown (N, C = ends). Where no end group is shown, it is not given here.

Experiments:
[1] = test system: patients with pulmonary arterial hypertension; conditions: racecadotril treatment
[2] = test system: intensive care patients without heart disease
[3] = test system: mice; conditions: ANP pretreatment
[4] = test system: dogs
[5] = test system: patients with acute lung injury; conditions: intravenous infusion, mechanical ventilation with positive end-expiratory pressure
[6] = test system: rodents
[7] = test system: isolated perfused lung; conditions: increased capillary pressure, hypoxia or inflammatory stimuli such as detergents or prostaglandins

Compound | increase in plasma cGMP levels [1] [%] | increase in the plasma ANP concentration [1] [%] | reduction in pulmonary vascular resistance [1] [%] | pulmonary oedema [2] | lung injury, inflammation and endothelial barrier dysfunction induced by gram-negative bacterial wall LPS or Staphylococcus Aureus infection [3] | pulmonary oedema induced by congestive heart failure [4] | lung injury score [5] | pulmonary gas exchange [5] | pulmonary oedema induced by lung ischaemia-reperfusion injury [6] | anti-oedematic action in isolated perfused lung [7]
CC(=O)SCC(Cc1ccccc1)C(=O)NCC(=O)OCc1ccccc1 (stereo not shown) [racecadotril] | 106 | 79 | 14 | – | – | – | – | – | – | –
ANP: synthetic form of the GC-A agonist peptide atrial natriuretic peptide (SLRRSSCFGGRMDRIGAQSGLGCNSFRY; disulfide 7-23; ends not checked; UniProt P01160 124-151, looked up) | – | – | – | diminished | protected | attenuated | improved | improved | attenuated | direct anti-oedematic action
